Test results: PubChem BioAssay (NCI)
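Results reflect a 48-hour exposure of cells in 96-well plates to compound at five concentrations. The concentration for 50% growth inhibition is given as GI50. TGI: total growth inhibition.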 Where a SMILES comes first, the peptide text is derived from it. [ ]: non-standard residue; d: D form. The star is where a group is joined. Bn2Val = CC(C)[C@@H](C(=O)*)N(Cc1ccccc1)Cc1ccccc1; NH(4-Cl-benzyl) = Clc1ccc(CN*)cc1; NMeV = CN[C@H](C(=O)O)C(C)C; dNMeA = CN[C@H](C)C(=O)O

Experiments:
Assay in all cases: DTP human tumour cell line panel, 48 h
[1] = tested on: CAKI-1 renal
[2] = tested on: LOX IMVI melanoma
[3] = tested on: MALME-3M melanoma
[4] = tested on: NCI/ADR-RES ovarian
[5] = tested on: SF-295 CNS
[6] = tested on: SK-MEL-5 melanoma
[7] = tested on: SW-620 colon
[8] = tested on: U251 CNS
[9] = tested on: UO-31 renal

Compound	TGI [1] [µM]	TGI [2] [µM]	TGI [3] [µM]	TGI [4] [µM]	TGI [5] [µM]	TGI [6] [µM]	TGI [7] [µM]	TGI [8] [µM]	TGI [9] [µM]	GI50 [1] [µM]	GI50 [4] [µM]	GI50 [6] [µM]	GI50 [8] [µM]	GI50 [2] [µM]	GI50 [3] [µM]	GI50 [5] [µM]	GI50 [7] [µM]	GI50 [9] [µM]
CC(C)(C)OC(=O)NCC(CNC(=O)OC(C)(C)C)c1nc(C(N)=O)cs1	> 100	> 100	> 100	> 100	> 100	> 100	> 100	> 100	> 100	–	–	–	–	–	–	–	–	–
C=CCC1C(O[Si](C)(C)C(C)(C)C)C(CO[Si](C)(C)C(C)(C)C)OC1n1ccc(=O)[nH]c1=O (configuration not stated)	–	2.25	–	3.48	3.59	2.91	2.84	5.66	2.83	–	–	–	–	–	–	–	–	–
O=c1c(-c2ccccc2)c(SCCO)n(-c2ccccc2)c(=S)n1-c1ccccc1	> 100	> 100	> 100	> 100	> 100	> 100	> 100	> 100	> 100	–	–	–	–	–	–	–	–	–
CCN=C1C=CC(=C(c2ccc(N(CC)CC)cc2)c2ccc(N(CC)CC)cc2)c2ccccc21	0.273	–	–	2.11	–	0.133	–	1.11	–	0.0335	0.35	0.0363	0.0348	–	–	–	–	–
CCOP(=O)(OCC)/C(=C/c1cccs1)CC(C)=O	> 100	> 100	> 100	> 100	> 100	> 100	> 100	> 100	> 100	–	–	–	–	–	–	–	–	–
CCOC(=O)c1cc2c([N+](=O)[O-])c(N)ccc2s1	> 100	> 100	> 100	> 100	> 100	> 100	> 100	> 100	> 100	–	–	–	–	–	–	–	–	–
COc1cnc2c(c1)C(=O)c1c-2n(CCCNCCO)c(=O)c2ccncc12	13	3.9	2.82	30.8	7.89	3.38	12.4	19.4	10.1	1.37	5.83	1.43	0.708	0.431	1.1	0.912	0.52	1.3
O=C1CC(=O)n2cnc3cccc(c32)N1	> 100	–	> 100	> 100	> 100	> 100	> 100	> 100	> 100	–	–	–	–	–	–	–	–	–
Cc1ccc(S(=O)CC(CF)OCn2cc(C)c(=O)[nH]c2=O)cc1 (configuration not stated)	> 100	> 100	> 100	> 100	> 100	> 100	> 100	> 100	> 100	–	–	–	–	–	–	–	–	–
CN(Cc1cnc2nc(N)nc(N)c2n1)c1ccc(C(=O)NC(CO)CCCO)cc1 (configuration not stated)	> 100	> 100	> 100	> 100	> 100	> 100	> 100	> 100	> 100	–	–	–	–	–	–	–	–	–
O=[N+]([O-])c1cccc(N=Nc2c(O)c(S(=O)(=O)O)cc3cc(S(=O)(=O)O)ccc23)c1	> 100	–	> 100	> 100	> 100	> 100	> 100	> 100	> 100	–	–	–	–	–	–	–	–	–
COc1ccc(C(SC2C(O)C(CO)OC2n2ccc(=O)[nH]c2=O)(c2ccccc2)c2ccc(OC)cc2)cc1 (configuration not stated)	> 100	31.5	36.7	47.1	43.3	29	63.6	30	33.4	–	–	–	–	–	–	–	–	–
CC(C)=CCNc1nc(Cl)nc2nc[nH]c12	> 100	> 100	> 100	> 100	> 100	> 100	> 100	–	> 100	–	–	–	–	–	–	–	–	–
COC(=O)C1C(=O)N(C)C(=O)N2CCCC12 (configuration not stated)	> 100	> 100	> 100	> 100	> 100	> 100	> 100	> 100	> 100	–	–	–	–	–	–	–	–	–
C=C(C)CC1(O[Si](C)(C)C)C(=O)C(OCC)=C1OCC (configuration not stated)	> 100	> 100	> 100	> 100	> 100	> 100	> 100	> 100	> 100	–	–	–	–	–	–	–	–	–
COc1cc(C2C3=C(COC3=O)Oc3cc4c(cc32)OCO4)cc(OC)c1O (configuration not stated)	21.6	19	39.5	–	15.4	< 0.0187	> 100	14	49.6	–	–	–	–	–	–	–	–	–
C/C(=N\Nc1nc2cc(C(F)(F)F)ccc2s1)c1ccccn1	5.14	2.48	8.9	1.48	5.19	12.1	7.65	–	4.89	–	–	–	–	–	–	–	–	–
C=C(C)[C@H]1C2=CC(C)=C(O2)[C@@H](O[C@@H]2c3oc(cc3C)[C@H](C(=C)C)[C@H]3C=C(CC[C@H]2C(=C)C)C(=O)O3)[C@H](C(=C)C)CCC2=C[C@H]1OC2=O	> 100	> 100	> 100	> 100	> 100	> 100	> 100	> 100	> 100	–	–	–	–	–	–	–	–	–
CC1(C)CC(=O)C2(CC(CSc3ccccc3)C(CS(=O)(=O)c3ccccc3)C2)C(=O)C1 (configuration not stated)	> 100	> 100	–	> 100	> 100	> 100	> 100	> 100	> 100	–	–	–	–	–	–	–	–	–
CCOC(=O)Nn1c(CC#N)nnc1Cc1ccccc1	> 100	–	> 100	> 100	> 100	> 100	> 100	> 100	> 100	–	–	–	–	–	–	–	–	–
COc1ccc(C(=O)CC(c2ccccc2)[C@H]2C(c3ccc(OC)cc3)=Nc3c(nc(SC)n(C)c3=O)NC2c2ccccc2)cc1 (some centres not stated)	> 100	> 100	–	> 100	> 100	> 100	> 100	> 100	–	–	–	–	–	–	–	–	–	–
CC(Oc1ccccc1Cl)C(=O)NN1C(=O)CSC1c1ccccc1 (configuration not stated)	> 100	> 100	–	> 100	> 100	> 100	> 100	> 100	> 100	–	–	–	–	–	–	–	–	–
CCOC(=O)c1cc(C)nc2c1c(=O)n(-c1ccccc1)c(=O)n2CCCCN1CCN(c2ccccc2)CC1	–	> 100	> 100	> 100	> 100	> 100	> 100	> 100	65.2	–	–	–	–	–	–	–	–	–
c1ccc(CN2CCC(Nc3ccccc3)(c3nnnn3Cc3ccccc3)CC2)cc1	–	43.5	34.9	> 100	44.8	25.6	60.6	> 100	26.6	–	–	–	–	–	–	–	–	–

Compound	TGI [1] [µM]	TGI [2] [µM]	TGI [3] [µM]	TGI [4] [µM]	TGI [5] [µM]	TGI [6] [µM]	TGI [7] [µM]	TGI [8] [µM]	TGI [9] [µM]	GI50 [1] [µM]	GI50 [4] [µM]	GI50 [6] [µM]	GI50 [8] [µM]	GI50 [2] [µM]	GI50 [3] [µM]	GI50 [5] [µM]	GI50 [7] [µM]	GI50 [9] [µM]
Cc1c(C(=O)OCc2ccccc2)[n+](=O)c2cc(Cl)c(Cl)cc2n1[O-]	28.2	35.7	–	48.4	37.4	28.2	–	> 100	32	–	–	–	–	–	–	–	–	–
Cc1cc(OC(=O)NCn2cc(-c3ccccc3)nn2)ccc1Cl	> 100	> 100	> 100	> 100	> 100	> 100	> 100	> 100	–	–	–	–	–	–	–	–	–	–
Cc1cc2c([nH]c3ccccc32)c(O)c1-c1c(C)cc2c([nH]c3ccccc32)c1O	27.9	32.7	–	29.4	33.4	30.1	50.8	23.7	25.7	14.7	–	16.5	–	–	–	17.4	–	13
c1ccc(/C(=N/Nc2ccncn2)c2ccccn2)cc1	> 100	–	–	49	64.9	> 100	> 100	> 100	67.3	–	–	–	–	–	–	–	–	–
COc1ccc(Nc2ccc3ccccc3c2-c2c(O)ccc3ccccc23)cc1	31.7	37.7	–	36.5	34.6	32.6	28.2	56	26.4	–	–	–	–	–	–	–	–	–
O=C(N/N=C/C=C/c1ccccc1)c1ccccc1Nc1ccccc1C(=O)N/N=C/C=C/c1ccccc1	> 100	–	> 100	> 100	> 100	> 100	> 100	> 100	> 100	–	–	–	–	–	–	–	–	–
O=C1OC[C@H]2[C@@H]1[C@H]1O[C@@H]2C2=C(CCC2)C1=O	–	> 100	> 100	> 100	> 100	> 100	> 100	> 100	> 100	–	–	–	–	–	–	–	–	–
Nc1nc(Cl)cc(NC23CC4CC(CC(C4)C2)C3)n1	> 100	–	> 100	> 100	> 100	–	> 100	> 100	> 100	–	–	–	–	–	–	–	–	–
Cc1cc(=O)[nH]c(NN2C(Cl)C(=O)C2c2ccc([N+](=O)[O-])cc2)n1 (configuration not stated)	–	19.2	–	–	–	27.3	79.7	36.7	43.1	–	–	–	–	–	–	–	–	–
Cn1c(=O)oc2nc(-c3ccccc3)cc(C(F)(F)F)c21	> 100	–	–	> 100	> 100	> 100	> 100	> 100	> 100	–	–	–	–	–	–	–	–	–
Cc1ccccc1N=C(N)Nc1ccccc1C	> 100	> 100	> 100	> 100	> 100	> 100	> 100	> 100	–	–	–	–	–	–	–	–	–	–
NN=C(CC(O)(C(F)(F)Cl)C(F)(F)Cl)CC(O)(C(F)(F)Cl)C(F)(F)Cl	> 10	> 10	> 10	> 10	> 10	> 10	> 10	> 10	–	–	–	–	–	–	–	–	–	–
CCOP(=O)(O)CN1CCNCCN(CP(=O)(O)OCC)CCNCC1	> 100	> 100	–	> 100	> 100	> 100	> 100	> 100	> 100	–	–	–	–	–	–	–	–	–
C=CCP(=O)(CC=C)C(Cl)Cl	> 100	> 100	–	> 100	> 100	> 100	> 100	> 100	> 100	–	–	–	–	–	–	–	–	–
CC(=O)Nc1ccc(OC/C(N)=N/NC(=O)c2ccncc2)cc1	> 100	> 100	–	> 100	> 100	–	> 100	> 100	–	–	–	–	–	–	–	–	–	–
O=C(Cc1ccc(Cl)c(Cl)c1)NCC1(N2CCCCC2)CCCCC1	> 100	> 100	47.2	> 100	> 100	–	> 100	> 100	> 100	–	–	–	–	–	–	–	–	–
CN(C)/N=N/c1nc2c(c(=O)n(C)c(=O)n2C)n1CC(O)CO (configuration not stated)	> 100	–	> 100	> 100	> 100	> 100	> 100	> 100	> 100	–	–	–	–	–	–	–	–	–
COc1ccc(OC)c(SC(CC(=O)c2ccccc2)c2ccccc2)c1 (configuration not stated)	28.5	–	38.5	32.4	31.6	28.7	12.2	31	24.7	–	–	–	–	–	–	–	–	–
CC(C)[C@H](NC(=O)[C@H](C(C)C)N(Cc1ccccc1)Cc1ccccc1)C(=O)N(C)[C@H](C(=O)N1CCC[C@H]1C(=O)N(C)[C@H](C)C(=O)NCc1ccc(Cl)cc1)C(C)C (Bn2Val-V[NMeV]P[dNMeA]-{NH(4-Cl-benzyl)})	> 100	3.63	> 29.7	95.7	11.1	13.4	> 100	20.1	–	–	–	–	–	–	–	–	–	–
Cc1nc(N)c(N2CCN(CN)CC2)c(=O)[nH]1	–	> 100	> 100	> 100	> 100	–	> 100	> 100	> 100	–	–	–	–	–	–	–	–	–
CCCSc1ccc2[nH]c(N3C(=O)/C(=C/c4ccccc4)N=C3c3ccccc3)cc2c1	> 50	> 50	> 50	> 50	–	44.4	> 50	–	> 50	–	–	–	–	–	–	–	–	–
O=C(Nc1ccccc1C(=O)NCc1ccccc1)/C(=C/c1ccccc1)NC(=O)c1ccccc1	> 100	> 100	–	> 100	> 100	> 100	> 100	> 100	> 100	–	–	–	–	–	–	–	–	–
C/C(=N\NC(=S)N(C)C)c1cccnn1	–	> 51.2	> 70.5	36.6	> 100	> 20.7	> 100	> 100	5.04	–	–	–	–	–	–	–	–	–
